Test results: ChEMBL document CHEMBL1201862, “PubChem BioAssay data set” (2004)
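All cell lines were grown in 96-well plates and treated with compound for 48 hours. Abbreviation: GI50, concentration required for 50% inhibition of growth.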 Active and inactive are the calls of the source. No stated cut-off is given here; in the data, active = GI50 up to about 1.1 µM and inactive = higher.

Assays:
Assay in all cases: DTP human tumour cell line panel, 48 h
[1] = test system: HCT-15
[2] = test system: ACHN
[3] = test system: MDA-MB-231
[4] = test system: SF-539
[5] = test system: RXF 393
[6] = test system: EKVX
[7] = test system: SK-MEL-5
[8] = test system: SK-MEL-28
[9] = test system: MDA-MB-435
[10] = test system: SR
[11] = test system: PC-3
[12] = test system: BT-549
[13] = test system: SK-MEL-2
[14] = test system: NCI-H460
[15] = test system: K562
[16] = test system: MOLT-4
[17] = test system: SNB-75
[18] = test system: Hs-578T
[19] = test system: MCF7
[20] = test system: COLO 205

Structure (SMILES) | GI50 [1] | GI50 [2] | GI50 [3] | GI50 [4] | GI50 [5] | GI50 [6] | GI50 [7] | GI50 [8] | GI50 [9] | GI50 [10] | GI50 [11] | GI50 [12] | GI50 [13] | GI50 [14] | GI50 [15] | GI50 [16] | GI50 [17] | GI50 [18] | GI50 [19] | GI50 [20]
CCCCCC(O)(CCCCC)CCCCCCCCC1=C(O)C(=O)c2ccccc2C1=O | 4.18 µM | 8.85 µM (inactive) | 11.4 µM (inactive) | 11.2 µM (inactive) | 12.9 µM (inactive) | 10.7 µM (inactive) | 3.62 µM (inactive) | 11.7 µM (inactive) | 8.53 µM (inactive) | 3.44 µM (inactive) | 7.5 µM (inactive) | 14.7 µM (inactive) | 12.1 µM (inactive) | 5.28 µM (inactive) | 3.08 µM (inactive) | 3.33 µM (inactive) | 28.1 µM (inactive) | 16.1 µM (inactive) | 9.62 µM (inactive) | 20.7 µM (inactive)
Nc1nc(Cl)cc(NCC2CC(O)(CO)C2)n1 (stereo not given) | > 100 µM | > 100 µM (inactive) | > 100 µM (inactive) | > 100 µM (inactive) | > 100 µM (inactive) | > 100 µM (inactive) | > 100 µM (inactive) | > 100 µM (inactive) | > 100 µM (inactive) | > 10 µM (inactive) | > 100 µM (inactive) | > 100 µM (inactive) | > 100 µM (inactive) | > 100 µM (inactive) | > 100 µM (inactive) | > 100 µM (inactive) | > 100 µM (inactive) | > 100 µM (inactive) | > 100 µM (inactive) | > 100 µM (inactive)
c1ccc(C2=NOC(c3ccccc3)N2C23CC4CC(CC(C4)C2)C3)cc1 (stereo not given) | > 10 µM | > 10 µM (inactive) | > 10 µM (inactive) | > 10 µM (inactive) | > 10 µM (inactive) | > 10 µM (inactive) | > 10 µM (inactive) | > 10 µM (inactive) | > 10 µM (inactive) | 0.785 µM (active) | > 10 µM (inactive) | > 10 µM (inactive) | > 10 µM (inactive) | > 10 µM (inactive) | > 10 µM (inactive) | 9.53 µM (inactive) | 5.19 µM (inactive) | > 10 µM (inactive) | 5.82 µM (inactive) | > 10 µM (inactive)
